According to publication PMC4744035, “In Vivo, In Vitro, and In Silico Characterization of Peptoids as Antimicrobial Agents” (PLoS ONE, 2016):
Values after ≈ are worked out from the molar mass of the structure shown. Square brackets hold non-standard residues; d marks the D form. Peptide text beside a SMILES is read from it. Nspe = C[C@H](NCC(=O)O)c1ccccc1; Nphe = O=C(O)CNCc1ccccc1; Nlys = NCCCCNCC(=O)O

What was measured:
[1] = test system: erythrocytes; experiment: Hemolytic activity (HD10/HD50); format: cell-based
Description: Table 1 Characteristics of antimicrobial peptoids, screened for activity against B. subtilis and E. coli bacterial strains. | column: HD10 / HD50

[2] = test system: E. faecium T62764 (VRE); experiment: microbe, parasite or virus in culture; conditions: T62764 (VRE)
Method: (§1) The MICs of test agents were measured using a modified broth micro-dilution method in Difco Mueller Hinton medium, on a panel of bacterial pathogens that were both susceptible and resistant to common antibiotics (S1 File). Briefly, serial dilutions were performed in 0.01% acetic acid containing 0.2% bovine serum albumin at 10-fold the desired final concentration. Ten μL of the 10-fold concentrated test reagents were added to each well of a 96-well polypropylene microtitre plate containing 90 μL of Mueller Hinton media per well. Bacteria were added to the plate from an overnight culture at a final concentration of 2–7 x 10^5 CFU/mL and incubated overnight at 37°C. The MIC is defined as the concentration at which no growth was observed.
(§2) Screening of peptoid antimicrobial activity against a panel of multidrug resistant superbugs was done according to the protocol described in the manuscript. The bacterial strains used in this panel included; P. aeruginosa PAO1 strain H103 [1], P. maltophilia ATCC#13637, S. aureus ATCC#25923 [1], E. faecalis ATCC#29212 [2], and E. cloacae 218R, constitutively expressing Class C chromosomal β-lactamase, were from the Hancock lab strains collection. An MRSA clinical isolate was kindly provided by Anthony Chow (Vancouver General Hospital, Vancouver, Canada). Two Klebsiella pneumoniae and two E. coli clinical isolates expressing extended spectrum β-lactamases (ESBL) were kindly provided by George Zhanel (Health Sciences Centre, Winnipeg, Canada). Vancomycin-resistant clinical isolates of Enterococcus faecalis and E. faecium were obtained from Ana M. Paccagnella (BC Centre for Disease Control, Vancouver, Canada). Three clinical isolates (#9, #198 and #213) of multi-drug resistant P. aeruginosa, were kindly provided by Carlos Kiffer (University of São Paulo, Brazil). […] Three P. aeruginosa clinical isolates of the Liverpool epidemic strain (LES) (H1027, H1030 and LES400) were all kindly provided by Craig Winstanley (University of Liverpool, UK). […] All tested bacterial strains were categorized as biohazard level 2 pathogens.

[3] = test system: P. aeruginosa 198 (MDR); experiment: microbe, parasite or virus in culture; conditions: 198 (MDR)
Method: as §1, §2

[4] = test system: K. pneumonia 61962 (ESBL); experiment: microbe, parasite or virus in culture
Method: as §1, §2

[5] = test system: E. coli 64771 (ESBL); experiment: microbe, parasite or virus in culture; conditions: 64771 (ESBL)
Method: as §1, §2

[6] = test system: E. faecium mic80 (VRE); experiment: microbe, parasite or virus in culture; conditions: mic80 (VRE)
Method: as §1, §2

[7] = test system: P. aeruginosa H103 (wild type); experiment: microbe, parasite or virus in culture; conditions: H103 (wild type)
Method: as §1, §2

[8] = test system: E. coli 63103 (ESBL); experiment: microbe, parasite or virus in culture; conditions: 63103 (ESBL)
Method: as §1, §2

[9] = test system: E. faecalis W61950 (VRE); experiment: microbe, parasite or virus in culture; conditions: W61950 (VRE)
Method: as §1, §2

[10] = test system: P. aeruginosa LES400 (MDR); experiment: microbe, parasite or virus in culture; conditions: LES400 (MDR)
Method: as §1, §2

[11] = test system: P. aeruginosa H1030 (MDR); experiment: microbe, parasite or virus in culture; conditions: P. aeruginosa H1030 (MDR)
Method: as §1, §2

[12] = test system: E. cloacae 218R Class C β-lactamase; experiment: microbe, parasite or virus in culture; conditions: 218R Class C β-lactamase
Method: as §1, §2

[13] = test system: P. aeruginosa 213 (MDR); experiment: microbe, parasite or virus in culture; conditions: 213 (MDR)
Method: as §1, §2

[14] = test system: P. aeruginosa 9 (MDR); experiment: microbe, parasite or virus in culture; conditions: 9 (MDR)
Method: as §1, §2

[15] = test system: E. faecalis F43559 (VRE); experiment: microbe, parasite or virus in culture; conditions: F43559 (VRE)
Method: as §1, §2

[16] = test system: P. maltophilia ATCC13637; experiment: microbe, parasite or virus in culture; conditions: ATCC13637
Method: as §1, §2

[17] = test system: S. aureus C623 (MRSA); experiment: microbe, parasite or virus in culture; conditions: C623
Method: as §1, §2

[18] = test system: S. aureus ATCC25923; experiment: microbe, parasite or virus in culture; conditions: ATCC25923
Method: as §1, §2

[19] = test system: K. pneumonia 63575 (ESBL); experiment: microbe, parasite or virus in culture
Method: as §1, §2

[20] = test system: E. faecalis ATCC29212; experiment: microbe, parasite or virus in culture; conditions: ATCC29212
Method: as §1, §2

[21] = test system: P. aeruginosa H1027 (MDR); experiment: microbe, parasite or virus in culture; conditions: H1027 (MDR)
Method: as §1, §2

[22] = test system: E. coli ATCC 35218; format: cell-based
Method: MICs against B. subtilis and E. coli screening bacterial strains were determined using serial dilution in 96-well microtiter plates in accordance with CLSI M7-A6 protocols. Briefly, peptoid solution in cation-adjusted Mueller-Hinton broth was prepared by 2:1 serial dilution with a total volume of 50 µL per well. In experimental wells, 50 µL of bacterial inoculums (1 x 10^6 CFU/mL) were added to the peptoid solutions. Positive controls consisted of 50 µL inoculums added to 50 µL cation-adjusted Mueller-Hinton broth containing no peptoid, while negative controls contained only cation-adjusted Mueller-Hinton broth. […] Experiments were reproducible among three independent replicates, each consisting of two parallel trials.

| Compound | HD10 (hemolytic activity) [1] | HD50 (hemolytic activity) [1] | MIC [2] [mg/L] | MIC [3] [mg/L] | MIC [4] [mg/L] | MIC [5] [mg/L] | MIC [6] [mg/L] | MIC [7] [mg/L] | MIC [8] [mg/L] | MIC [9] [mg/L] | MIC [10] [mg/L] | MIC [11] [mg/L] | MIC [12] [mg/L] | MIC [13] [mg/L] | MIC [14] [mg/L] | MIC [15] [mg/L] | MIC [16] [mg/L] | MIC [17] [mg/L] | MIC [18] [mg/L] | MIC [19] [mg/L] | other results |
| --- | --- | --- | --- | --- | --- | --- | --- | --- | --- | --- | --- | --- | --- | --- | --- | --- | --- | --- | --- | --- | --- |
| C[C@@H](c1ccccc1)N(CC(N)=O)C(=O)CN(C(=O)CN(CCCCN)C(=O)[C@@H]1CCCN1C(=O)CN(C(=O)CN(CCCCN)C(=O)CN(C(=O)CN(C(=O)CN(CCCCN)C(=O)CN(C(=O)CN(C(=O)CNCCCCN)[C@@H](C)c1ccccc1)[C@@H](C)c1ccccc1)[C@@H](C)c1ccccc1)[C@@H](C)c1ccccc1)[C@@H](C)c1ccccc1)[C@@H](C)c1ccccc1 [Peptoid 1-Pro9, H-(NLys-Nspe2)2-NLys-Nspe-L-Pro-(NLys-Nspe2)-NH2] (H-[Nlys][Nspe][Nspe][Nlys][Nspe][Nspe][Nlys][Nspe]P[Nlys][Nspe][Nspe]-NH2) | 165 | > 200 | 2 (≈ 1.14 µM) | 32 (≈ 18.2 µM) | 128 (≈ 72.9 µM) | 8 (≈ 4.56 µM) | 8 (≈ 4.56 µM) | 8 (≈ 4.56 µM) | 32 (≈ 18.2 µM) | 32 (≈ 18.2 µM) | 16 (≈ 9.12 µM) | 32 (≈ 18.2 µM) | 32 (≈ 18.2 µM) | 16 (≈ 9.12 µM) | 256 (≈ 146 µM) | 8 (≈ 4.56 µM) | 2 (≈ 1.14 µM) | 8 (≈ 4.56 µM) | 8 (≈ 4.56 µM) | 64 (≈ 36.5 µM) | MIC [20]: 16 mg/L (≈ 9.12 µM); MIC [21]: 2 mg/L (≈ 1.14 µM); MIC E. coli [22]: 12.5 µM (≈ 21.9 µg/mL) |
| C[C@@H](c1ccccc1)N(CC(N)=O)C(=O)CN(C(=O)CN(CCCCN)C(=O)CN(Cc1ccccc1)C(=O)CN(Cc1ccccc1)C(=O)CN(CCCCN)C(=O)CN(C(=O)CN(C(=O)CN(CCCCN)C(=O)CN(Cc1ccccc1)C(=O)CN(Cc1ccccc1)C(=O)CNCCCCN)[C@@H](C)c1ccccc1)[C@@H](C)c1ccccc1)[C@@H](C)c1ccccc1 [1-Npm2,3,8,9, H-(NLys-Npm-Npm-NLys-Nspe-Nspe)2-NH2] | 39 | > 200 | 1 (≈ 0.567 µM) | 8 (≈ 4.54 µM) | 32 (≈ 18.1 µM) | 4 (≈ 2.27 µM) | 4 (≈ 2.27 µM) | 4 (≈ 2.27 µM) | 8 (≈ 4.54 µM) | 8 (≈ 4.54 µM) | 4 (≈ 2.27 µM) | 16 (≈ 9.07 µM) | 8 (≈ 4.54 µM) | 4 (≈ 2.27 µM) | 64 (≈ 36.3 µM) | 8 (≈ 4.54 µM) | 1 (≈ 0.567 µM) | 2 (≈ 1.13 µM) | 2 (≈ 1.13 µM) | 16 (≈ 9.07 µM) | MIC [20]: 4 mg/L (≈ 2.27 µM); MIC [21]: 2 mg/L (≈ 1.13 µM); MIC E. coli [22]: 6.3 µM (≈ 11.1 µg/mL) |
| C[C@@H](c1ccccc1)N(CC(N)=O)C(=O)CN(Cc1ccccc1)C(=O)CN(CCCCN)C(=O)CN(C(=O)CN(Cc1ccccc1)C(=O)CN(CCCCN)C(=O)CN(C(=O)CN(Cc1ccccc1)C(=O)CN(CCCCN)C(=O)CN(C(=O)CN(Cc1ccccc1)C(=O)CNCCCCN)[C@@H](C)c1ccccc1)[C@@H](C)c1ccccc1)[C@@H](C)c1ccccc1 [1-Npm2,5,8,11, H-(NLys-Npm-Nspe)4-NH2] (H-[Nlys][Nphe][Nspe][Nlys][Nphe][Nspe][Nlys][Nphe][Nspe][Nlys][Nphe][Nspe]-NH2) | 87 | > 200 | 1 (≈ 0.567 µM) | 8 (≈ 4.54 µM) | 32 (≈ 18.1 µM) | 4 (≈ 2.27 µM) | 4 (≈ 2.27 µM) | 4 (≈ 2.27 µM) | 8 (≈ 4.54 µM) | 16 (≈ 9.07 µM) | 8 (≈ 4.54 µM) | 16 (≈ 9.07 µM) | 8 (≈ 4.54 µM) | 4 (≈ 2.27 µM) | 64 (≈ 36.3 µM) | 4 (≈ 2.27 µM) | 2 (≈ 1.13 µM) | 8 (≈ 4.54 µM) | 4 (≈ 2.27 µM) | 16 (≈ 9.07 µM) | MIC [20]: 4 mg/L (≈ 2.27 µM); MIC [21]: 2 mg/L (≈ 1.13 µM); MIC E. coli [22]: 6.3 µM (≈ 11.1 µg/mL) |
| C[C@@H](c1ccccc1)N(CC(N)=O)C(=O)CN(C(=O)CN(CCCCN)C(=O)CN(C(=O)CN(C(=O)CN(CCCCN)C(=O)CN(C(=O)CN(C(=O)CN(CCCCN)C(=O)[C@@H]1CCCN1C(=O)CN(C(=O)CNCCCCN)[C@@H](C)c1ccccc1)[C@@H](C)c1ccccc1)[C@@H](C)c1ccccc1)[C@@H](C)c1ccccc1)[C@@H](C)c1ccccc1)[C@@H](C)c1ccccc1 [Peptoid 1-Pro3, H-NLys-Nspe-L-Pro-(NLys-Nspe-Nspe)3-NH2] (H-[Nlys][Nspe]P[Nlys][Nspe][Nspe][Nlys][Nspe][Nspe][Nlys][Nspe][Nspe]-NH2) | 74 | > 200 | 2 (≈ 1.14 µM) | 16 (≈ 9.12 µM) | 32 (≈ 18.2 µM) | 8 (≈ 4.56 µM) | 4 (≈ 2.28 µM) | 8 (≈ 4.56 µM) | 16 (≈ 9.12 µM) | 16 (≈ 9.12 µM) | 8 (≈ 4.56 µM) | 16 (≈ 9.12 µM) | 16 (≈ 9.12 µM) | 8 (≈ 4.56 µM) | 128 (≈ 72.9 µM) | 8 (≈ 4.56 µM) | 1 (≈ 0.57 µM) | 4 (≈ 2.28 µM) | 4 (≈ 2.28 µM) | 32 (≈ 18.2 µM) | MIC [20]: 8 mg/L (≈ 4.56 µM); MIC [21]: 2 mg/L (≈ 1.14 µM); MIC E. coli [22]: 12.5 µM (≈ 21.9 µg/mL) |
